From patent US12186374B2 (Sanofi-Aventis Deutschland GmbH, priority 2014, dated 2025)

Tests used:
[1] = tested on: patients with Type 2 diabetes mellitus (T2DM); test: HbA1c change from baseline to Week 30 (Example 2, on top of metformin); type: in vivo, human; conditions: for HbA1c change from baseline to Week 30, LS Mean (SE): MMRM
Description: For the eligibility and efficacy assessments of the study, HbA1c is measured by a certified level I “National Glycohemoglobin Standardization Program” (NGSP) central laboratory.
Randomization was stratified by values of HbA1c at visit 4 (<8%, […]) and second oral anti-diabetic (OAD) use at screening (Yes, No).
Diagnosis and criteria for inclusion: Inclusion criteria: Patients with type 2 diabetes mellitus (T2DM) diagnosed for at least 1 year before the screening visit, treated for at least 3 months prior to Visit 1 with metformin alone or metformin and a second oral anti-diabetic treatment that could be a SU, a glinide, a SGLT-2 inhibitor, or a DPP-4 inhibitor, and who were not adequately controlled with this treatment.
Efficacy analysis was based on modified intent-to-treat (mITT) population using efficacy assessments collected during the study, including those obtained after IMP discontinuation or introduction of rescue therapy. The mITT population consisted of all randomized patients who had both a baseline assessment and at least one post-baseline assessment of any primary or secondary efficacy variables.
The primary efficacy endpoint was analyzed using a mixed-effect model with repeated measures (MMRM). The MMRM model included the treatment groups, randomization strata, visit, treatment-by-visit interaction, and country as fixed-effect factors, and the baseline HbA1c-by-visit interaction as covariate.

[2] = tested on: patients with Type 2 diabetes mellitus (T2DM); test: Standardized meal test: 2-hour glucose excursion and 2-hour PPG (Example 2); type: in vivo, human
Description: (§1) Patients will undergo a standardized meal challenge to assess fasting and postprandial glucose (central laboratory), as well as plasma glucose excursion.
(§2) The standardized meal contains approximately 600 kcal and is composed of 50 to 55% carbohydrate, 15 to 20% protein and 25 to 30% fat.
(§3) On the day of the standardized meal test, the patients will come to the investigational site in the morning, in fasting conditions for at least 8 hours and must not eat any food or drink, except water, before the scheduled standardized meal test. […] Patient in insulin glargine group will inject their insulin glargine at their usual injection time.
(§4) The standardized meal for all patients should be consumed within a 15-minute period. Blood for plasma glucose is drawn 5 times: • 30 minutes prior to the start of the meal and before IMP administration if the IMP is injected before breakfast; • Just before the start of the standardized meal (0 minute), • 30 minutes after the start of the standardized meal, • 60 minutes after the start of the standardized meal, • 120 minutes after the start of the standardized meal.
(§5) Similar MMRM method or ANCOVA was applied on continuous secondary efficacy endpoints and Cochran-Mantei-Haenszel method stratified by randomization strata was applied on categorical efficacy endpoints.

[3] = tested on: patients with Type 2 diabetes mellitus (T2DM); test: Fasting plasma glucose change from baseline to Week 30 (Example 2); type: in vivo, human
Description: FPG is measured at a central laboratory. At V5 and V21, FPG will be part of the standardized meal test.
as §5

[4] = tested on: patients with Type 2 diabetes mellitus (T2DM); test: Average 7-point SMPG change from baseline to Week 30 (Example 2); type: in vivo, human; conditions: mITT population
patients with T2DM [5] = test: Standardized meal test: 2-hour glucose excursion and 2-hour PPG (Example 3); type: in vivo, human
Description: as §1, §2, §3, §4
(§6) Similar MMRM method or analysis of covariance (ANCOVA) was applied on continuous secondary efficacy endpoints and the Cochran-Mantei-Haenszel method stratified by randomization strata was applied for categorical efficacy endpoints.

patients with T2DM [6] = test: Average 7-point SMPG change from baseline to Week 30 (Example 3); type: in vivo, human; conditions: mITT population
Text: In yet another aspect of the present invention, the composition or combination as described herein can be used for improving average 7-point SMPG profile. Self-monitored plasma glucose (SMPG)”, as used herein, is in particular the “7-point Self Monitored Plasma Glucose”. “7-point Self Monitored Plasma Glucose” in particular refers to the measurement of plasma glucose seven times a day and calculation of the average plasma glucose concentration therefrom. The “7-point Self Monitored Plasma Glucose” value is in particular an average plasma glucose concentration including fasting and postprandial conditions. In particular, measurements of plasma glucose concentration are performed pre-breakfast, post-breakfast (e.g. 2-hour post-breakfast), pre-lunch, post-lunch (e.g. 2-hour post-lunch), pre-dinner, post-dinner (e.g. 2-hour post-dinner) and at bed-time. The treatment by the combination of the present invention, as described herein, can improve the self-monitored plasma glucose.
The 7-point SMPG profile should be measured at the following 7 points: pre-prandial and 2 hours postprandial for breakfast, lunch, dinner and at bedtime. Two hours postprandial (breakfast, lunch and dinner) is defined as 2 hours after the start of the meal.
The patients are requested to perform 7-point SMPG profile measurement over a single 24-hour period on 2 Different Days in the Week Before V6 (Week 0), V15 (Week 12), and V21 (week 30, end of treatment assessment visit). All SMPG values measured on these days will be recorded in diary and transferred into the e-CRF.
as §6

patients with T2DM [7] = type: in vivo, human; conditions: Example 3
Text: as §6

[8] = tested on: patients with Type 2 diabetes mellitus (T2DM); test: Pen-related event questionnaire (Example 2); conditions: on-treatment period
patients with T2DM [9] = test: ALT increase reported on AE form (Example 3); conditions: on-treatment period
[10] = Example 2, baseline, standardized meal test
[11] = standardized meal test, mITT population
[12] = standardized meal test, ANCOVA, mITT population

“Gly(A21)-Arg(B31)-Arg(B32)-human insulin [Insulin Glargine]” was tested, and the “HbA1c change from baseline to Week 30, LS Mean (SE)” value ([1]; mITT population) was −1.34 (0.039) %, the “HbA1c change from baseline to Week 30, LS Mean (SE)” value ([1]; mITT population, listed as insulin glargine) was −1.34% and the “HbA1c (%) Week 30 Mean (SD)” value ([1]; Week 30, mITT population) was 6.81 (0.76) %. The “HbA1c (%) Week 30 Median” value ([1]; Week 30, mITT population) was 6.70%, the “HbA1c (%) Week 30 Mean (SD)” value ([1]; Week 30, mITT population, listed as insulin glargine) was 6.8% and the “HbA1c (%) Baseline Mean (SD)” value ([1]; baseline, mITT population) was 8.08 (0.69) %. The “HbA1c (%) Baseline Median” value ([1]; baseline, mITT population) was 8.00%, the “2-hour plasma glucose excursion, change from baseline to Week 30 (LOCF), LS Mean (SE)” value ([2]; ANCOVA, mITT population) was −0.18 (0.157) mmol/L and the “2-hour PPG change from baseline to Week 30 (LOCF) Mean (SD)” value ([2]; Example 2) was −3.26 (3.54) mmol/L. The “2-hour PPG change from baseline to Week 30 (LOCF) Median” value ([2]; Example 2) was -3.35 mmol/L, the “2-hour PPG change from baseline to Week 30 (LOCF) LS Mean (SE)” value ([2]; Example 2, ANCOVA) was −3.31 (0.178) mmol/L and the “2-hour PPG change from baseline to Week 30 (LOCF) LS Mean (SE)” value ([2]; Example 2, ANCOVA, listed as insulin glargine) was -3.31 mmol/L. For the same substance, the “2-hour postprandial plasma glucose Week 30 (LOCF) Mean (SD)” value ([2]; Example 2, Week 30 (LOCF)) was 11.35 (3.12) mmol/L, the “2-hour postprandial plasma glucose Week 30 (LOCF) Median” value ([2]; Example 2, Week 30 (LOCF)) was 11.20 mmol/L and the “2-hour glucose excursion, LS mean change” value ([2]; Example 2, baseline to Week 30, standardized liquid breakfast meal) was -0.18 mmol/L. For the same substance, the “2-hour postprandial plasma glucose Baseline Mean (SD)” value [2, 10] was 14.61 (3.64) mmol/L, the “2-hour postprandial plasma glucose Baseline Median” value [2, 10] was 14.50 mmol/L and the “2-hour plasma glucose excursion, Week 30 (LOCF), Mean (SD)” value [2, 11] was 4.80 (2.90) mmol/L. For the same substance, the “2-hour plasma glucose excursion, Week 30 (LOCF), Median” value [2, 11] was 4.70 mmol/L, the “2-hour plasma glucose excursion, change from baseline to Week 30 (LOCF), Mean (SD)” value [2, 11] was −0.22 (2.86) mmol/L and the “2-hour plasma glucose excursion, change from baseline to Week 30 (LOCF), Median” value [2, 11] was -0.10 mmol/L. For the same substance, the “FPG, LS mean change from baseline to Week 30” value ([3]; Example 2) was -3.27 mmol/L, the “Fasting plasma glucose, change from baseline to Week 30, LS Mean (SE)” value ([3]; MMRM, mITT population) was −3.27 (0.091) mmol/L and the “Fasting plasma glucose, Week 30, Mean (SD)” value ([3]; mITT population) was 6.53 (1.76) mmol/L. The “Fasting plasma glucose, Week 30, Median” value ([3]; mITT population) was 6.20 mmol/L, the “Average of 7-point SMPG, change from baseline to Week 30, LS Mean (SE)” value ([4]; MMRM) was −2.66 (0.084) mmol/L and the “Average of 7-point SMPG, Week 30, Mean (SD)” value [4] was 7.75 (1.49) mmol/L. For the same substance, the “Average of 7-point SMPG, Week 30, Median” value [4] was 7.49 mmol/L, the “2-hour PPG, LS mean change” value (patients with T2DM [5]; Example 3) was -1.39 mmol/L and the “2-hour glucose excursion, LS mean change from baseline to Week 30” value (patients with T2DM [5]; Example 3, standardized liquid breakfast meal) was -0.47 mmol/L. The “2-hour plasma glucose excursion, change from baseline to Week 30 (LOCF), LS Mean (SE)” value (patients with T2DM [5]; [12]) was −0.47 (0.274) mmol/L, the “2-hour postprandial plasma glucose change from baseline to Week 30 (LOCF), LS Mean (SE)” value (patients with T2DM [5]; [12]) was −1.39 (0.310) mmol/L and the “2-hour plasma glucose excursion at Week 30 (LOCF), Mean (SD)” value (patients with T2DM [5]; [11]) was 6.71 (3.34) mmol/L. The “2-hour plasma glucose excursion at Week 30 (LOCF), Median” value (patients with T2DM [5]; [11]) was 6.40 mmol/L, the “2-hour plasma glucose excursion, change from baseline to Week 30 (LOCF), Mean (SD)” value (patients with T2DM [5]; [11]) was −0.44 (3.34) mmol/L and the “2-hour plasma glucose excursion, change from baseline to Week 30 (LOCF), Median” value (patients with T2DM [5]; [11]) was -0.30 mmol/L. For the same substance, the “2-hour postprandial plasma glucose at Week 30 (LOCF), Mean (SD)” value (patients with T2DM [5]; [11]) was 13.41 (3.83) mmol/L, the “2-hour postprandial plasma glucose at Week 30 (LOCF), Median” value (patients with T2DM [5]; [11]) was 13.10 mmol/L and the “2-hour postprandial plasma glucose change from baseline to Week 30 (LOCF), Mean (SD)” value (patients with T2DM [5]; [11]) was −1.56 (4.20) mmol/L. For the same substance, the “2-hour postprandial plasma glucose change from baseline to Week 30 (LOCF), Median” value (patients with T2DM [5]; [11]) was -1.50 mmol/L, the “Average of 7-point SMPG, change from baseline to Week 30, LS Mean (SE)” value (patients with T2DM [6]; MMRM) was −0.60 (0.130) mmol/L and the “Average of 7-point SMPG at Week 30, Mean (SD)” value (patients with T2DM [6]) was 8.62 (1.74) mmol/L. The “Average of 7-point SMPG at Week 30, Median” value (patients with T2DM [6]) was 8.26 mmol/L, the “Patients reaching HbA1c<7.0% with no body weight gain and no documented symptomatic hypoglycemia” value (patients with T2DM [7]) was 9.0% and the “Patients reaching HbA1c<7.0% at Week 30 with no documented symptomatic hypoglycemia” value (patients with T2DM [7]; 30-week treatment period) was 18.6%. For the same substance, the “Patients reporting pen-related events, %” value ([8]; Example 2) was 2.1%, the “Patients reporting pen-related events, number” value ([8]; Example 2) was 10 patients and the “Patients with events reported in pen-related event questionnaire: Any pen-related events” value ([8]; Safety population) was 10 (2.1%) Number (%). For the same substance, the “Pen-related events: Associated with a clinical event” value ([8]; Safety population) was 0 Number (%), the “Pen-related events: Not associated with a clinical event” value ([8]; Safety population) was 10 (2.1%) Number (%) and the “Patients with AE of ALT increase” value (patients with T2DM [9]; Example 3) was 2 patients. The “% of patients with events reported on the AE form for ALT increase: Alanine aminotransferase increased” value (patients with T2DM [9]; PT, Safety population) was 0.5%, the “Number of patients with events reported on the AE form for ALT increase: Alanine aminotransferase increased” value (patients with T2DM [9]; PT, Safety population) was 2 and the “Number of patients with events reported on the AE form for ALT increase: Hepatic enzyme increased” value (patients with T2DM [9]; PT, Safety population) was 0. The “% of patients with events reported on the AE form for ALT increase: Any” value (patients with T2DM [9]; Safety population) was 0.5% and the “Number of patients with events reported on the AE form for ALT increase: Any” value (patients with T2DM [9]; Safety population) was 2.
